Several values for one entry are separate records, joined by “and”; a condition that tells them apart may be missing. Equal entries are not always repeated.
Assays:
[1] = test system: tomato plants; test: Root mass of tomato plants in the infectivity assays; type: in vivo, Solanum lycopersicum; conditions: 45 μM
Description: An M. incognita population originally collected from grape (Vitis vinifera) in Parlier, Calif., was used for all experiments, and they were maintained on tomato plants (Solanum lycopersicum ‘Rutgers’) as previously described^73. Infective J2 juveniles were collected as described in^73. For the infectivity assays, 90 grams of soil (1:1 sand:loam mix) was added to each cell of several 6-cell plastic garden packs. The soil was drenched with 18 mL of deionized water containing dissolved chemical or DMSO alone. 2,500 infective J2 juveniles were then added to the soil in 2 mL of deionized water, for a total water volume of 20 mL. The final concentration of the chemicals in water was 45 μM. The DMSO concentration varied from 0.1% to 0.8% (v/v) depending on the stock concentration of the chemical. The highest DMSO concentration was used as the DMSO control. The J2s were incubated in the soil and chemical for 24 hours, after which two- to three-week old tomato seedlings were transplanted into the soil (one plant per cell). Two replicates were performed for each chemical treatment, and four replicates were done for the DMSO controls. The whole experiment was replicated twice, in two different batches on two different days, for a total of four replicates for each chemical treatment, and eight replicates for the DMSO controls. Inoculated plants were grown for 8 weeks in a greenhouse, as described^73, under long-day conditions (16-h photoperiod) with 26/18° C. day/night temperatures. After 8 weeks, the plants were destructively harvested. The tops were removed and discarded, and roots were gently washed with water to remove adhering soil. Eggs were extracted by placing rinsed roots in 0.6% sodium hypochlorite and agitating at 300 rpm for 3 min. Roots were then rinsed over nested 250- and 25.4-μm sieves, with eggs collected from the latter and suspended in water. Roots were dried in a 65° C. oven for at least 24 hours, after which dry roots were weighed. The number of eggs from each plant root was counted on a dissection microscope using a haemocytometer, and the number of eggs per milligram of root was calculated by dividing the total egg number by the mass of the dried root material. An average was taken across the replicates performed on the same day, and then normalized to the DMSO control average. To calculate percent effectiveness at inhibiting reproduction, the normalized values were subtracted from 1, and then multiplied by 100. An average percent effectiveness value was then calculated across the two different batches carried out on different days.

[2] = test system: M. chitwoodi; test: Meloidogyne chitwoodi infectivity assays (tomato roots in soil); type: in vivo; conditions: 45 μM in soil, 8 weeks, egg counts relative to DMSO control
Description: An M. incognita population originally collected from grape (Vitis vinifera) in Parlier, Calif., was used for all experiments, and they were maintained on tomato plants (Solanum lycopersicum ‘Rutgers’) as previously described^73. Infective J2 juveniles were collected as described in^73. For the infectivity assays, 90 grams of soil (1:1 sand:loam mix) was added to each cell of several 6-cell plastic garden packs. The soil was drenched with 18 mL of deionized water containing dissolved chemical or DMSO alone. 2,500 infective J2 juveniles were then added to the soil in 2 mL of deionized water, for a total water volume of 20 mL. The final concentration of the chemicals in water was 45 μM. The DMSO concentration varied from 0.1% to 0.8% (v/v) depending on the stock concentration of the chemical. The highest DMSO concentration was used as the DMSO control. The J2s were incubated in the soil and chemical for 24 hours, after which two- to three-week old tomato seedlings were transplanted into the soil (one plant per cell). […] The number of eggs from each plant root was counted on a dissection microscope using a haemocytometer, and the number of eggs per milligram of root was calculated by dividing the total egg number by the mass of the dried root material. […] An average percent effectiveness value was then calculated across the two different batches carried out on different days. […]

[3] = test system: C. elegans; test: C. elegans minimum lethal concentration dose-response; type: in vivo, Caenorhabditis elegans; conditions: Caenorhabditis elegans, C. elegans viability
Description: (§1) Forty microliters of an HB101 bacterial suspension in liquid NGM (see above) was added to each well of a 96-well flat-bottom culture plate, after which approximately 25 synchronized L1 worms, in 10 μl of M9 buffer (see ref. 59 for the recipe), were added to each well. The synchronized L1 worms were obtained from an embryo preparation performed the previous day (see ref. 59 for the protocol). For the L1 assays, 0.5 μl of chemical solution (or DMSO alone) was immediately added to the wells using a multichannel pipette, the final DMSO concentration is 1% (v/v). The worms were incubated for 3 days at 20° C. and the number of viable animals was counted. […] Although the counts were performed after 3 days of incubation in the chemical, it was noted that the L1s were dead within 24 hours of the addition of the chemicals. For the L2/L3 assays, the worms were incubated in the absence of chemical for 1 day at 20° C. until they reached the L2/L3 stage, at which point chemical was added as described above. The worms were then allowed to incubate for 2 days at 20° C. and the number of viable animals was counted as described for the L1 assay. For the L4 assays, the worms were incubated for 2 days at 20° C. before the addition of chemicals. The L4-stage worms were then incubated in chemical for an additional day before quantifying the number of viable animals. The adult assays were performed the same way as the L4 assays, however HT115 E. coli carrying the empty dsRNA expressing vector L4440 was used in place of HB101 and the worms were cultured at 25° C. as opposed to 20° C. for the entirety of the experiment. The HT115 suspension was made by concentrating a bacterial culture, with an OD600 of ˜ 0.8, five-fold with liquid NGM containing 1 mM IPTG and 100 μg/ml carbenicillin. The HT115 cells were induced with 1 mM IPTG for one hour before concentrating with NGM.
Compounds Ia to Im, dose-response assays were performed with C. elegans. 8 of the compounds killed C. elegans with minimum lethal concentrations less than or equal to 100 μM (Table 6). Compounds Ia, Ic, and Ij were the most potently lethal nematicides in this assay, having minimum lethal concentrations of 6.25 μM and below. The positive control nematicide tioxazafen killed nematodes at 3.13 μM and above.

[4] = test system: C. elegans; test: C. elegans viability at a single concentration (Table 3); type: in vivo; conditions: Caenorhabditis elegans; 50 μM (compound If)
Description: as §1
(§2) The ability of exemplary compounds of the application to kill C. elegans at 100 μM (except for compound If which was tested at 50 μM) and to affect the mobility of M. chitwoodi at 45 μM was tested as described above for M. incognita infective juveniles. Percent mobility was measured after 2 days of chronic exposure to test compounds (Table 3).

[5] = test system: M. incognita J2 larvae; test: Meloidogyne incognita in vitro assays (J2 movement); type: in vivo; conditions: 45 μM, 2 days, relative to DMSO control
Description: (§3) M. incognita (Kofoid & White) Chitwood Race 1 (originally isolated in Maryland) was used for all experiments, and was maintained on pepper (Capsicum annuum L.) cv. PA-136 in a greenhouse as previously described^64. Infective J2 juveniles were collected as described in ref.65. The microwell dose-response experiments were carried out similarly to previously described protocols^64, 66. In brief, 100 J2s, in 10 μL of deionized water, were added to the wells of 96-well polystyrene plates, after which 190 μL of deionized water containing dissolved chemical, or DMSO alone, was added to each well. The chemicals were tested at 45 μM, and the final concentration of DMSO in each well was 0.5% (v/v). The wells were covered with a plastic adhesive strip, and the lids of the plates were sealed with parafilm. The plates were incubated at 25° C. The mobile fraction of worms was quantified by counting the number of mobile and immobile worms after 2 days of incubation, and then dividing the number of mobile worms by the total number of worms in the well. Three technical replicates were performed for each treatment, and an average value for the mobile fraction of worms was calculated across the three replicates. The percent effectiveness at inhibiting nematode movement was calculated by dividing the average value for the chemical treatment by the average value for the DMSO control, then subtracting this value from 1, and then multiplying by 100.

[6] = test system: M. chitwoodi; test: Root-knot nematode M. chitwoodi mobility (Table 3); type: in vivo, Meloidogyne chitwoodi; conditions: 45 μM, 2 days of chronic exposure
Description: as §3
M. chitwoodi race 1 (the strain commonly found in the pacific northwest of the United States) was used for all experiments, and was maintained on tomato plants (Solanum lycopersicum ‘Rutgers’) as previously described^73. The M. chitwoodi in vitro assays were performed identically to the M. incognita in vitro assays (see above).
as §2

In the case of `Cc1csc2nc(-c3ccc(Cl)cc3)cn12` [Compound If], the “Normalized root mass (relative to DMSO control)” value [1] is reported as 1.3, the “% effectiveness at inhibiting reproduction of M. chitwoodi” value [2] is reported as 46.2% and the minimal effective concentration [3] is reported as 25 µM and 6.2 µg/mL. For the same compound, the viability at 50 µM [4] was 19.8%, the “% effectiveness at reducing M. incognita movement” value [5] was 3.5% and the RKN mobility [6] was 0.6%.

Source: patent publication US20220264883A1, “IMIDAZOTHIAZOLE COMPOUNDS AND METHODS FOR TREATING PLANT NEMATODE INFECTIONS” (The Governing Council of the University of Toronto, priority 2019, published 2022)
